{
  "source": "patent US9326506B2",
  "about": "“Preparation method, agricultural composition and applications of natural brassinolide analogs” (CHENGDU NEWSUN CROPSCIENCE CO., LTD, priority 2012, dated 2016)",
  "key": {"rice seed": {"tested_on": "rice seed", "test": "Salt tolerance assay: germination of rice seed under high salt environment", "type": "in vivo", "conditions": "rice seed", "description": "According to a salt tolerance assay, we measured germination of rice seed under high salt environment to determine effects of the natural brassinolide analogues on the salt tolerance of a plant.\nThe natural brassinolide analogues, BR1, BR2, BR3, BR4, BR5 and BR6, used herein, were those prepared by the method of Example 1. And BR1, BR2, BR3, BR4, BR5 and BR6 were mixed into a mixture of brassinolide analogues (referred to as “BRs”, in which the weight ratio of BR1:BR2:BR3:BR4:BR5:BR6 is 0.4:0.4:0.4:0.4:0.4:98). Respectively the analogues and the mixture were dissolved into 95% (V/V) ethanol solution, and then diluted with pure water to 1 mg/L, 0.1 mg/L, 0.01 mg/L, 0.001 mg/L and 0.0001 mg/L. In addition, pure water was used as a control. Furthermore, NaCl was added to the above solutions containing different concentrations of the natural brassinolide analogues or pure water respectively, and the concentrations of the salt are 300, 400, 500 and 600 mg/L respectively.\nAfter rice seeds were disinfected by using 5% sodium hypochlorite solution treatment, they were rinsed with distilled water until their pH>7, placed into a petri dish in a dark incubator, and cultured at 30° C.±2° C. by using the above solutions containing different concentrations of the natural brassinolide analogues or pure water for observing the germination and calculating germination rates. The results are shown in tables 4-0˜4-4, which indicate that relative to the control, each of the natural brassinolide analogues and the mixture were capable of increasing germination rates of rice under high salt environment so as to enhance the salt tolerance of a plant; and substantially the enhancement of the germination rates was positively correlated to the concentrations of the natural brassinolide analogues and the mixture."}, "rice": {"tested_on": "rice", "test": "Rice leaf bending assay (leaf inclination angle)", "type": "in vivo", "conditions": "for Average angle / Total angle: 48 hr; for Total angle: sum of 20 rice", "description": "According to a rice leaf bending assay, we measured leaf inclination angle of rice to determine effects of the natural brassinolide analogues on the enhancement of plant development. The larger the leaf inclination angle of rice, the more effects on plant development. The detailed assay procedure is as follows:\nThe natural brassinolide analogues, BR1, BR2, BR3, BR4, BR5 and BR6, used herein, were those prepared by the method of Example 1. And BR1, BR2, BR3, BR4, BR5 and BR6 were mixed into a mixture of brassinolide analogues (referred to as “BRs”, in which the weight ratio of BR1:BR2:BR3:BR4:BR5:BR6 is 0.4:0.4:0.4:0.4:0.4:98). Respectively the analogues and the mixture were dissolved into 95% (V/V) ethanol solution, and then diluted with pure water to 1 mg/L, 0.1 mg/L, 0.01 mg/L, 0.001 mg/L and 0.0001 mg/L. In addition, pure water was used as a control.\nAfter rice seeds were disinfected by using 5% sodium hypochlorite solution treatment, they were rinsed with distilled water until their pH>7, placed into a petri dish in a dark incubator, and cultured by using water at 30° C.±2° C. for 9 days. Then the nine-day-old etiolated seedlings of rice were cut around the center of the base of second leaf to segments with 1 cm leaf and 1 cm leaf sheath. The leaf segments were floated in distilled water, placed in a dark incubator, cultured at 30° C.±2° C. for 24 hr, and then dried by a filter paper. The dried leaf segments were respectively immersed in the above solutions containing different concentrations of the natural brassinolide analogues or pure water, and cultured in a dark incubator at 30° C.±2° C. for 48 hr. Every solution or pure water contained the leaf segments from 20 rice. Then the inclination angle between the second leaf and the leaf sheath of the leaf segments was measured by a protractor."}},
  "data": [
    {"smiles": "CC(C)(O)CC[C@@H](O)[C@](C)(O)[C@H]1CC[C@@]2(O)[C@@H]3CC(=O)[C@@H]4C[C@@H](O)[C@@H](O)C[C@]4(C)[C@H]3CC[C@]12C", "note": "[BR6]", "values": [
      {"measurement": "Germination rate", "setting": "rice seed; sample 0.0001 mg/l, salt (NaCl) 300 mg/l", "value": 52, "unit": "%"},
      {"measurement": "Germination rate", "setting": "rice seed; sample 0.0001 mg/l, salt (NaCl) 400 mg/l", "value": 48, "unit": "%"},
      {"measurement": "Germination rate", "setting": "rice seed; sample 0.0001 mg/l, salt (NaCl) 500 mg/l", "value": 42, "unit": "%"},
      {"measurement": "Germination rate", "setting": "rice seed; sample 0.0001 mg/l, salt (NaCl) 600 mg/l", "value": 36, "unit": "%"},
      {"measurement": "Germination rate", "setting": "rice seed; sample 0.001 mg/l, salt (NaCl) 300 mg/l", "value": 53, "unit": "%"},
      {"measurement": "Germination rate", "setting": "rice seed; sample 0.001 mg/l, salt (NaCl) 400 mg/l", "value": 50, "unit": "%"},
      {"measurement": "Germination rate", "setting": "rice seed; sample 0.001 mg/l, salt (NaCl) 500 mg/l", "value": 44, "unit": "%"},
      {"measurement": "Germination rate", "setting": "rice seed; sample 0.001 mg/l, salt (NaCl) 600 mg/l", "value": 37, "unit": "%"},
      {"measurement": "Germination rate", "setting": "rice seed; sample 0.01 mg/l, salt (NaCl) 300 mg/l", "value": 55, "unit": "%"},
      {"measurement": "Germination rate", "setting": "rice seed; sample 0.01 mg/l, salt (NaCl) 400 mg/l", "value": 51, "unit": "%"},
      {"measurement": "Germination rate", "setting": "rice seed; sample 0.01 mg/l, salt (NaCl) 500 mg/l", "value": 46, "unit": "%"},
      {"measurement": "Germination rate", "setting": "rice seed; sample 0.01 mg/l, salt (NaCl) 600 mg/l", "value": 39, "unit": "%"},
      {"measurement": "Germination rate", "setting": "rice seed; sample 0.1 mg/l, salt (NaCl) 300 mg/l", "value": 58, "unit": "%"},
      {"measurement": "Germination rate", "setting": "rice seed; sample 0.1 mg/l, salt (NaCl) 400 mg/l", "value": 53, "unit": "%"},
      {"measurement": "Germination rate", "setting": "rice seed; sample 0.1 mg/l, salt (NaCl) 500 mg/l", "value": 47, "unit": "%"},
      {"measurement": "Germination rate", "setting": "rice seed; sample 0.1 mg/l, salt (NaCl) 600 mg/l", "value": 42, "unit": "%"},
      {"measurement": "Germination rate", "setting": "rice seed; sample 1 mg/l, salt (NaCl) 300 mg/l", "value": 68, "unit": "%"},
      {"measurement": "Germination rate", "setting": "rice seed; sample 1 mg/l, salt (NaCl) 400 mg/l", "value": 55, "unit": "%"},
      {"measurement": "Germination rate", "setting": "rice seed; sample 1 mg/l, salt (NaCl) 500 mg/l", "value": 52, "unit": "%"},
      {"measurement": "Germination rate", "setting": "rice seed; sample 1 mg/l, salt (NaCl) 600 mg/l", "value": 44, "unit": "%"},
      {"measurement": "Average angle", "setting": "rice; 0.0001 mg/l", "value": 4.25, "unit": "degree"},
      {"measurement": "Total angle", "setting": "rice; 0.0001 mg/l", "value": 85, "unit": "degree"},
      {"measurement": "Average angle", "setting": "rice; 0.001 mg/l", "value": 7.1, "unit": "degree"},
      {"measurement": "Total angle", "setting": "rice; 0.001 mg/l", "value": 142, "unit": "degree"},
      {"measurement": "Average angle", "setting": "rice; 0.01 mg/l", "value": 23, "unit": "degree"},
      {"measurement": "Total angle", "setting": "rice; 0.01 mg/l", "value": 460, "unit": "degree"},
      {"measurement": "Average angle", "setting": "rice; 0.1 mg/l", "value": 35.5, "unit": "degree"},
      {"measurement": "Total angle", "setting": "rice; 0.1 mg/l", "value": 710, "unit": "degree"},
      {"measurement": "Average angle", "setting": "rice; 1 mg/l", "value": 109, "unit": "degree"},
      {"measurement": "Total angle", "setting": "rice; 1 mg/l", "value": 2180, "unit": "degree"},
      {"measurement": "Effects on leaf inclination compared among analogues", "setting": "rice; in the case of high concentrations", "value": "more than those of BR2, BR3 and BR4"}
    ]}
  ]
}
